# Assay results reported in patent US5358712A, “Radiopharmaceutical agents for the detection of Alzheimer's disease” (Regents of the University of Minnesota, priority 1993, dated 1994).
# Read-outs that look alike come from different tables or passages of the source.
# Assays:
# [1] = Blocking experiments: inhibition of radiotracer accumulation in the rat by coadministered compound; format: in vivo, rat (male Wistar); details: rat, iv, rat, iv, 60 min
# Description: (§1) *Animals in group 1 received an iv injection of (+)4-[^125 l]HIPP
# (§2) only. For groups 2, 3, and 4, the radiotracer was coadministered with the
# (§3) hydrochlorides of (+)7 (0.53 mg/kg), (-)7 (0.53 mg/kg) and vesamicol (0.3
# (§4) Four groups of male Wistar rats (n=3) were used in these experiments. All animals received an iv dose of 8-10 μCi of the radiotracer in 0.1 ml of 50% aq. ethanol. Additionally, in groups 2, 3 and 4, the radiotracer was coadministered with (+)-HBrPP.HCl(1.3 μmol/kg), (-)-HBrPP.HCl(1.3 μmol/kg) and (dl)-vesamicol hydrochloride (1.1 μmol/kg), respectively. At 60 min. post-injection, blood was collected by cardiac puncture and the animals sacrificed as described above. The data was analyzed as outlined above.
# (§5) NOTE: The dose of radiotracer injected was 5-7 mCi. Group I was the
# (§6) control, injected with the radiotracer only. Group II included the
# (§7) simultaneous injection of "cold"(dl)3-HIPP (HCl) (0.53 mg/kg). Group III
# (§8) included the simultaneous injection of (dl) vesamicol (HCl) (0.31 mg/kg).
# (§9) All rats were sacrificed at one hour postinjection.
# (§10) NOTE: Group I was the control, injected with the radiotracer only. Group
# (§11) II included the simultaneous injection of "cold"(dl)3-HIPP (HCl) (0.53
# (§12) mg/kg). Group III included the simultaneous injection of (dl) vesamicol
# (§13) hydrochloride (0.31 mg/kg). The dose of radiotracer was 8-9 μCi. All
# (§14) rats were sacrificed at one hour postinjection.
# (§15) NOTE: Group I received (+)[^125 l]13 only. Group II received the (+)
# (§16) radiotracer coinjected with 0.31 mg/kg (dl)vesamicol hydrochloride. Group
# (§17) III received (-)[^125 l]13 only. Group IV received the (-) radiotrace
# (§18) coinjected with 0.31 mg/kg (dl)vesamicol hydrochloride. All animals were
# (§19) sacrificed at one hour postinjection. The dose of radiotracer injected pe
# vesamicol receptor = test: as above; format: in vivo, rat (male Wistar); details: rat, iv, 60 min
# Description: as §1, §2, §3, §4, §5, §6, §7, §8, §9, §10, §11, §12, §13, §14, §15, §16, §17, §18, §19
# [2] = Tissue distribution (biodistribution) of radioiodinated compound in the rat; details: rat; for Brain: Blood Ratio / Heart: Blood Ratio / radioactivity in blood / radioactivity in brain / radioactivity in heart / radioactivity in kidney / radioactivity in liver / radioactivity in lung / radioactivity in muscle / radioactivity in spleen: iv
# Description: Four groups of male Wistar rats (with four animals per group) weighing 200-350 g were used in these experiments. Each animal received, while under ether anesthesia, an intravenous injection of the radiotracer (10-20 μCi) dissolved in 0.1 ml of 50% aqueous ethanol. At 5, 30, and 60 and 180 min. post-injection, blood was collected from the anesthetized animals by cardiac puncture, and the animal was immediately sacrificed by cardiectomy. The organs and tissues of interest were harvested, transferred to preweighed tubes and counted in a Beckman gamma counter. The tubes were subsequently reweighed to give the weight of the corresponding tissues. Preweighed tubes containing ^1 -ml samples of a 1:100 dilution of the injection dose were also counted and used as reference for calculating the tissue accumulation of radioactivity. The accumulation of radiotracer was expressed as a percentage of injected dose per gram of tissue.
# [3] = + (dl)-vesamicol HCl 0.3 (Table 3) or 0.31 mg/kg
smiles,measurement,setting,value
"OC(Cc1ccc([125I])cc1)CN1CCC(c2ccccc2)CC1 (single isomer, unassigned; (-)) [(-)-4-[^125 l]HIPP, 2-Hydroxy-3-(4-iodophenyl)-1-(4-phenylpiperidyl)propane]",tissue uptake at 1 h,"[1]; blood, + (+)-7 HCl 0.53 mg/kg, read-out: radioactivity in blood",0.05 %ID/g
same,tissue uptake at 1 h,"[1]; blood, + (-)-7 HCl 0.53 mg/kg, read-out: radioactivity in blood",0.04 %ID/g
same,tissue uptake at 1 h,"[1]; blood, + (dl)-vesamicol HCl 0.3 (Table 3) or 0.31 mg/kg, read-out: radioactivity in blood",0.02 %ID/g
same,tissue uptake at 1 h,"[1]; blood, radiotracer only (control), read-out: radioactivity in blood",0.02 %ID/g
same,tissue uptake at 1 h,"[1]; brain, + (+)-7 HCl 0.53 mg/kg, read-out: radioactivity in brain",0.28 %ID/g
same,tissue uptake at 1 h,"[1]; brain, + (-)-7 HCl 0.53 mg/kg, read-out: radioactivity in brain",0.29 %ID/g
same,tissue uptake at 1 h,"[1]; brain, + (dl)-vesamicol HCl 0.3 (Table 3) or 0.31 mg/kg, read-out: radioactivity in brain",0.31 %ID/g
same,tissue uptake at 1 h,"[1]; brain, radiotracer only (control), read-out: radioactivity in brain",0.93 %ID/g
same,tissue uptake at 1 h,"[1]; heart, + (+)-7 HCl 0.53 mg/kg, read-out: radioactivity in heart",0.12 %ID/g
same,tissue uptake at 1 h,"[1]; heart, + (-)-7 HCl 0.53 mg/kg, read-out: radioactivity in heart",0.13 %ID/g
same,tissue uptake at 1 h,"[1]; heart, + (dl)-vesamicol HCl 0.3 (Table 3) or 0.31 mg/kg, read-out: radioactivity in heart",0.13 %ID/g
same,tissue uptake at 1 h,"[1]; heart, radiotracer only (control), read-out: radioactivity in heart",0.79 %ID/g
same,tissue uptake at 1 h,"[1]; kidney, + (+)-7 HCl 0.53 mg/kg, read-out: radioactivity in kidney",0.46 %ID/g
same,tissue uptake at 1 h,"[1]; kidney, + (-)-7 HCl 0.53 mg/kg, read-out: radioactivity in kidney",0.42 %ID/g
same,tissue uptake at 1 h,"[1]; kidney, + (dl)-vesamicol HCl 0.3 (Table 3) or 0.31 mg/kg, read-out: radioactivity in kidney",0.35 %ID/g
same,tissue uptake at 1 h,"[1]; kidney, radiotracer only (control), read-out: radioactivity in kidney",1.9 %ID/g
same,tissue uptake at 1 h,"[1]; liver, + (dl)-vesamicol HCl 0.3 (Table 3) or 0.31 mg/kg, read-out: radioactivity in liver",4.18 %ID/g
same,tissue uptake at 1 h,"[1]; liver, radiotracer only (control), read-out: radioactivity in liver",2.68 %ID/g
same,tissue uptake at 1 h,"[1]; lung, + (+)-7 HCl 0.53 mg/kg, read-out: radioactivity in lung",1.64 %ID/g
same,tissue uptake at 1 h,"[1]; lung, + (-)-7 HCl 0.53 mg/kg, read-out: radioactivity in lung",1.04 %ID/g
same,tissue uptake at 1 h,"[1]; lung, + (dl)-vesamicol HCl 0.3 (Table 3) or 0.31 mg/kg, read-out: radioactivity in lung",0.95 %ID/g
same,tissue uptake at 1 h,"[1]; lung, radiotracer only (control), read-out: radioactivity in lung",3.63 %ID/g
same,tissue uptake at 1 h,"[1]; muscle, + (+)-7 HCl 0.53 mg/kg, read-out: radioactivity in muscle",0.07 %ID/g
same,tissue uptake at 1 h,"[1]; muscle, + (-)-7 HCl 0.53 mg/kg, read-out: radioactivity in muscle",0.08 %ID/g
same,tissue uptake at 1 h,"[1]; muscle, + (dl)-vesamicol HCl 0.3 (Table 3) or 0.31 mg/kg, read-out: radioactivity in muscle",0.06 %ID/g
same,tissue uptake at 1 h,"[1]; muscle, radiotracer only (control), read-out: radioactivity in muscle",0.21 %ID/g
same,tissue uptake at 1 h,"[1]; spleen, + (+)-7 HCl 0.53 mg/kg, read-out: radioactivity in spleen",0.57 %ID/g
same,tissue uptake at 1 h,"[1]; spleen, + (-)-7 HCl 0.53 mg/kg, read-out: radioactivity in spleen",0.57 %ID/g
same,tissue uptake at 1 h,"[1]; spleen, + (dl)-vesamicol HCl 0.3 (Table 3) or 0.31 mg/kg, read-out: radioactivity in spleen",0.6 %ID/g
same,tissue uptake at 1 h,"[1]; spleen, radiotracer only (control), read-out: radioactivity in spleen",1.42 %ID/g
"OC(CN1CCC(c2ccccc2)CC1)c1ccc([125I])cc1 (single isomer, unassigned; (-)) [(-)-[^125 l]13] [1-(4-Iodophenyl)-2-(4-phenylpiperidinyl)ethanol]",radioactivity in heart,vesamicol receptor; [3],0.08 % dose/g of tissue
same,Brain: Blood Ratio,vesamicol receptor; [3],1.61
same,Heart: Blood Ratio,vesamicol receptor; [3],0.99
same,radioactivity in blood,vesamicol receptor; [3],0.08 % dose/g of tissue
same,radioactivity in brain,vesamicol receptor; [3],0.13 % dose/g of tissue
same,radioactivity in kidney,vesamicol receptor; [3],0.38 % dose/g of tissue
same,radioactivity in liver,vesamicol receptor; [3],1.44 % dose/g of tissue
same,radioactivity in lung,vesamicol receptor; [3],0.34 % dose/g of tissue
same,radioactivity in muscle,vesamicol receptor; [3],0.07 % dose/g of tissue
same,radioactivity in spleen,vesamicol receptor; [3],0.27 % dose/g of tissue
same,Brain: Blood Ratio,vesamicol receptor; radiotracer only (control),7.41
same,Heart: Blood Ratio,vesamicol receptor; radiotracer only (control),1.31
same,radioactivity in blood,vesamicol receptor; radiotracer only (control),0.10 % dose/g of tissue
same,radioactivity in brain,vesamicol receptor; radiotracer only (control),0.73 % dose/g of tissue
same,radioactivity in heart,vesamicol receptor; radiotracer only (control),0.13 % dose/g of tissue
same,radioactivity in kidney,vesamicol receptor; radiotracer only (control),1.26 % dose/g of tissue
same,radioactivity in liver,vesamicol receptor; radiotracer only (control),1.66 % dose/g of tissue
same,radioactivity in lung,vesamicol receptor; radiotracer only (control),0.66 % dose/g of tissue
same,radioactivity in muscle,vesamicol receptor; radiotracer only (control),0.11 % dose/g of tissue
same,radioactivity in spleen,vesamicol receptor; radiotracer only (control),0.61 % dose/g of tissue
same,decrease of concentration in the brain,"[2]; 3 hours post-injection vs initial, listed as (-)-[^125 I]13",85%
same,initial accumulation in the rat brain,"[2]; initial, listed as (-)-[^125 I]13",1.69 % of the injected dose
same,Brain: Blood Ratio,[2]; 5 min,8.7
same,Heart: Blood Ratio,[2]; 5 min,6.2
same,radioactivity in blood,[2]; 5 min,0.13 % dose/g
same,radioactivity in brain,[2]; 5 min,1.08 % dose/g
same,radioactivity in heart,[2]; 5 min,0.77 % dose/g
same,radioactivity in kidney,[2]; 5 min,3.38 % dose/g
same,radioactivity in liver,[2]; 5 min,1.72 % dose/g
same,radioactivity in lung,[2]; 5 min,5.05 % dose/g
same,radioactivity in muscle,[2]; 5 min,0.32 % dose/g
same,radioactivity in spleen,[2]; 5 min,0.70 % dose/g
same,Brain: Blood Ratio,[2]; 60 min,11.1
same,Heart: Blood Ratio,[2]; 60 min,2.0
same,radioactivity in blood,[2]; 60 min,0.06 % dose/g
same,radioactivity in brain,[2]; 60 min,.70 % dose/g
same,radioactivity in heart,[2]; 60 min,0.13 % dose/g
same,radioactivity in kidney,[2]; 60 min,1.47 % dose/g
same,radioactivity in liver,[2]; 60 min,1.90 % dose/g
same,radioactivity in lung,[2]; 60 min,0.54 % dose/g
same,radioactivity in muscle,[2]; 60 min,0.11 % dose/g
same,radioactivity in spleen,[2]; 60 min,0.57 % dose/g
same,Brain: Blood Ratio,[2]; 180 min,5.5
same,Heart: Blood Ratio,[2]; 180 min,0.9
same,radioactivity in blood,[2]; 180 min,0.06 % dose/g
same,radioactivity in brain,[2]; 180 min,0.35 % dose/g
same,radioactivity in heart,[2]; 180 min,0.05 % dose/g
same,radioactivity in kidney,[2]; 180 min,0.74 % dose/g
same,radioactivity in liver,[2]; 180 min,0.98 % dose/g
same,radioactivity in lung,[2]; 180 min,0.24 % dose/g
same,radioactivity in muscle,[2]; 180 min,0.05 % dose/g
same,radioactivity in spleen,[2]; 180 min,0.23 % dose/g
